# Experimental data published in the supplement of paper PMC8837787.
# Tested on: Saccharomyces cerevisiae ABC16-Green Monster
# Test: growth inhibition at single dose (up to 150 µM), below the 70% cut-off for dose-response; higher = more potent
# Settings: 18 h; 30 °C; YPD
# Outline: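 Values are percent growth inhibition of drug-sensitive S. cerevisiae ABC16-Green Monster cells. Cells grown overnight in YPD at 30 °C were diluted to log phase (OD600 0.1–0.2), and each library compound was added at a single dose of 150 µM to 200 µl culture per well in 96-well plates, in biological duplicates, beside untreated cultures. OD600 was read at 0 h and after 18 h at 30 °C, and compounds under 70% in both replicates were not taken to dose-response.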
structure (smiles),measurement,value
CC(=O)Oc1ccccc1C(=O)Nc1ncc([N+](=O)[O-])s1,growth inhibition at single dose,< 70%
O=C(Nc1ccc(CNc2ncnc3cc(Cl)ccc23)cc1)C1CC1,growth inhibition at single dose,< 70%
CCC(Sc1nc2ccccc2o1)C(=O)Nc1nnc(C)s1 (stereo not given),growth inhibition at single dose,< 70%
CC1(C)OB(O)c2ccc(C3=NOC(c4cc(Cl)c(F)c(Cl)c4)(C(F)(F)F)C3)cc21 (stereo not given),growth inhibition at single dose,< 70%
CCOC(=O)c1c[nH]c2c(F)cc(F)cc2c1=O,growth inhibition at single dose,< 70%
COc1ccc(NC(=O)C2c3ccccc3C(=O)N(CC(C)C)C2c2cccs2)cc1 (stereo not given),growth inhibition at single dose,< 70%
COc1cccc(NC(=O)c2c(NC(=O)c3cccnc3)sc3c2CCC3)c1,growth inhibition at single dose,< 70%
Oc1c2c(nc3ccccc13)CCCC2,growth inhibition at single dose,< 70%
Nc1ncnc2c1ncn2C[C@@H](O)[C@@H](O)C(=O)O,growth inhibition at single dose,< 70%
OC1=C2C(=Nc3ccccc3SC2c2ccc(Br)cc2)c2ccccc21 (stereo not given),growth inhibition at single dose,< 70%
Cc1ccc(-c2csc(Nc3ccccn3)n2)c(C)c1,growth inhibition at single dose,< 70%
CCOC(=O)c1c[nH]c2c(C)cc(Cl)cc2c1=O,growth inhibition at single dose,< 70%
Cc1nc(NCc2ccc(N3CCN(C)CC3)nc2)c2c(-c3ccccc3)csc2n1,growth inhibition at single dose,< 70%
CC(NCC(=O)N1c2ccc(S(N)(=O)=O)cc2CC1C)C1CC2CCC1C2 (stereo not given),growth inhibition at single dose,< 70%
Nc1ccc(-c2nc3cc(Cc4ccc5[nH]c(-c6ccc(N)cc6)nc5c4)ccc3[nH]2)cc1,growth inhibition at single dose,< 70%
CNc1snc(C)c1C(=O)NCc1ccc(COCC(F)(F)F)cc1,growth inhibition at single dose,< 70%
Clc1ccc(Cl)c(-c2ccc(CNCCN3CCNCC3)o2)c1,growth inhibition at single dose,< 70%
CC(=O)c1ccc(NC(=O)CSc2nc(-c3ccccc3Cl)ns2)cc1,growth inhibition at single dose,< 70%
Clc1ccc(CN2CCN(C3=NCCN3)CC2)cc1Cl,growth inhibition at single dose,< 70%
Cc1ccc(-c2cnn3c(NCCN(C)C)cc(C)nc23)cc1,growth inhibition at single dose,< 70%
CCOc1ccccc1NC(=O)CN1CCN(C(=O)c2ccco2)CC1,growth inhibition at single dose,< 70%
CC(C)C(Oc1cccc2ccccc12)C(=O)O (stereo not given),growth inhibition at single dose,< 70%
COC(=O)c1c(C)[nH]c(C(=O)Nc2ccc(C)cn2)c1C,growth inhibition at single dose,< 70%
O=C(CN1CCOCC1)Nc1ccc2ncnc(Nc3ccc(OCc4cccc(F)c4)c(Cl)c3)c2c1,growth inhibition at single dose,< 70%
Cc1cnc(NC(=O)c2ccc(C3SCCS3)cc2)s1,growth inhibition at single dose,< 70%
CC(C)c1ccc(C2C3CCc4ccccc4C3=NN2C)cc1 (stereo not given),growth inhibition at single dose,< 70%
Cc1cc(C)n(-c2ccc(NC(=O)C3(c4ccccc4)CC3)cn2)n1,growth inhibition at single dose,< 70%
COc1cccc2c(C)nc(N=C(N)N)nc12,growth inhibition at single dose,< 70%
CCOc1cccc(C2Nc3ccccc3C(=O)N2C2CC2)c1O (stereo not given),growth inhibition at single dose,< 70%
Cc1cc(C(=O)NCC#Cc2cccc(C(F)(F)F)c2)on1,growth inhibition at single dose,< 70%
COc1ccccc1CN1CCN2C(=O)[C@@H](Cc3ccc(O)cc3)NC(=O)[C@H]2C1,growth inhibition at single dose,< 70%
COc1ccc(-c2nc(C(=O)N3CCc4ccccc43)cs2)cc1OC,growth inhibition at single dose,< 70%
CN1CCN(c2ccc(Nc3c4ccccc4nc4ccccc34)cc2)CC1,growth inhibition at single dose,< 70%
CCCc1cc(O)c2c3c(c(=O)oc2c1)CN(C)CC3,growth inhibition at single dose,< 70%
CC(C)(C)c1ccc(Oc2ccc(N)cc2)cc1,growth inhibition at single dose,< 70%
CCOC(=O)c1c(C)[nH]c(C(=O)CSc2nccn2C)c1C,growth inhibition at single dose,< 70%
COc1ccc(-c2nc(NC(=O)CS(=O)(=O)c3ccc(F)cc3)sc2C)cc1,growth inhibition at single dose,< 70%
O=C(c1cc2ccccc2o1)N1CCN(Cc2ccc3c(c2)OCO3)CC1,growth inhibition at single dose,< 70%
CO[C@@H](C(=O)N1Cc2[nH]nc(NC(=O)c3ccc(N4CCN(C)CC4)cc3)c2C1)c1ccccc1,growth inhibition at single dose,< 70%
O=C(COc1ccc2[nH]c3ccccc3c(=O)c2c1)N1c2ccccc2OCC1c1ccccc1 (stereo not given),growth inhibition at single dose,< 70%
